Consider 10 molecules from the SangsterLogP compilation.

Structures are written as SMILES.

Series [1] is described as follows: from Caliendo, G., Novellino, E., Santagada, V., Silipo, C., & Vittoria, A. (1991). Structure-activity relationships in a set of antimicrobial. In QSAR, Rational Approaches to the Design of Bioactive ….

In turn, `Cn1nc2ccc(NC(=O)CCl)cc2n1` had a logP in series [1] of 1.22.

For the molecule `O=C(Nc1ccc2nn(C3CCCCC3)nc2c1)c1ccc(Cl)c(Cl)c1`, in series [1], the logP was found to be 5.85.

Take `O=C(Nc1ccc2nn(C3CCCCC3)nc2c1)c1ccc([N+](=O)[O-])cc1`: in series [1], the logP was 4.57.

Take `COc1cc(C(=O)Nc2ccc3nn(C4CCCCC4)nc3c2)cc(OC)c1OC`: the logP turned out to be 4.45.

With `Cn1nc2ccc(NC(=O)c3ccc(Cl)cc3)cc2n1`, the logP in series [1] was 3.13.

`O=C(Nc1ccc2nn(C3CCCCC3)nc2c1)c1ccccc1` registered a logP in series [1] of 4.45.

Consider `O=C(Nc1ccc2nn(C3CCCCC3)nc2c1)C(Cl)Cl`, for which the logP in series [1] is 3.87.

The molecule `Cn1nc2ccc(NC(=O)c3ccccc3)cc2n1` had a lipophilicity (logP) in series [1] of 2.44.

Molecule `Cn1nc2ccc(NC(=O)c3ccc([N+](=O)[O-])cc3)cc2n1` gave a logP in series [1] of 2.53. This logP and that of the molecule before are within 0.2 log units of each other.

Turning to `COc1cc(C(=O)Nc2ccc3nn(C)nc3c2)cc(OC)c1OC`, in series [1], the logP amounted to 2.38.

One may read the logP as the decadic logarithm of the partition coefficient of the neutral form, usually between octanol and water. Lower therefore signals a more hydrophilic compound.
